Assay results published in publication PMC3317662, “Some Commonly Used Brominated Flame Retardants Cause Ca^2+-ATPase Inhibition, Beta-Amyloid Peptide Release and Apoptosis in SH-SY5Y Neuronal Cells” (PLoS ONE, 2012).

Target: T1, microsomal Ca2+-ATPase (SERCA)
T1 construct: native enzyme in microsomal membranes isolated from SH-SY5Y cells
Assay: Ca2+-dependent ATP hydrolysis (phosphate liberation assay) in SH-SY5Y microsomes
Assay type: biochemical

| SMILES | Ki [µM] |
| --- | --- |
| BrC1CCC(Br)C(Br)CCC(Br)C(Br)CCC1Br (stereo not drawn) [hexabromocyclododecane] | 3.5 ± 1.2 |
| Brc1c(Br)c(Br)c(Oc2c(Br)c(Br)c(Br)c(Br)c2Br)c(Br)c1Br [decabromodiphenyl ether] | 41 ± 7 |
| CC(C)(c1cc(Br)c(O)c(Br)c1)c1cc(Br)c(O)c(Br)c1 [Tetrabromobisphenol-A] | 9 ± 2 |
